According to patent US5776944A, “7-(4-aminomethyl-3-methyloxyiminopyrroplidin-1-yl)-1-cyclopropyl-6-flu oro-4-oxo-1,4-dihydro-1,8-naphthyridine-3-carboxylic acid and the process for the preparation thereof” (LG Chemical Ltd., priority 1994, dated 1998):
“Also recorded” adds a separate entry of the source. Read-outs that look alike come from different tables or passages of the source.

Tests used:
[1] = Thermal analysis (Differential Scanning Calorimetry); assay type: physicochemical; conditions: DSC, 10° C./min
Method: For the Differential Scanning Calorimetry, METTLER TOLEDO DSC821e and METTLER TOLEDO STARe System were used. 3.7 mg of sample was weighed into the aluminum pan, which was then press sealed with an aluminum lid. After three tiny needle holes were made on the lid, the sample was tested by heating from normal temperature to 250° C. at a rate of 10° C./min.

[2] = Humidification of the anhydride with humidified nitrogen (Example 205); assay type: physicochemical
Method: A sonicator filled with water was adjusted to 40° C. and was sealed with a lid. Then, a nitrogen introducing tube and a nitrogen excreting tube were connected to the vessel. When the pressure of the dried nitrogen introduced through the nitrogen introducing tube was adjusted to 20 psi, the relative humidity of the humidified nitrogen excreted through the excreting tube was more than 93%. […] Samples were taken after 0, 5, 10, 20, 30, and 60 minutes, respectively, and the moisture content with the lapse of time was measured. From the results shown in FIG. 8, it can be seen that moisture content of about 10% is constantly maintained when the humidifying procedure is carried out over 30 minutes. The X-ray diffraction pattern of the humidified sample was identical to that the 3 hydrate obtained after recrystallization.

[3] = Moisture adsorption test of the anhydride; assay type: physicochemical; conditions: 25° C.
Method: Under various relative humidities at 25° C., the moisture adsorption velocity and the equilibrium moisture content of the anhydride prepared in Example 203 were determined by means of an automatic moisture adsorption analyzer (MB 300 G Gravimetric Sorption Analyzer). This instrument produces a specific relative humidity at a specific temperature and continuously records the weight change of a sample due to adsorption or desorption of moisture as measured by a micro balance inside the instrument. 16 mg of the anhydride sample was loaded on the micro balance and the moisture contained in the sample was removed under a dry nitrogen stream at 50° C. A weight change of less than 5 μg per 5 minutes was the criterion for complete dryness. Thereafter, the inner temperature was adjusted to 25° C., and the sample was tested varying the relative humidity from 0 to 95% at 5% intervals. The sample was considered to have reached equilibrium at each relative humidity tested when the weight change was less than 5 μg per 5 minutes. […] In most cases, the equilibrium was reached within 2 hours.

[4] = Equilibrium moisture content determination of hydrates; assay type: physicochemical
Method: Six saturated aqueous salt solutions were introduced into each desiccator to control the inner relative humidity to a specific value as represented in the following Table 28. Then, equilibrium moisture contents of 3 hydrate and 1.5 hydrate prepared in Examples 205 and 206, respectively, were determined at several relative humidities.
Specifically, 100 mg of the sample was spread on a preweighed Petri dish and the total weight was accurately measured, then three of the sample were placed in each desiccator of Table 28. The desiccators were allowed to stand at normal temperature for 7 days and then the sample was taken to be weighed. After 13 days had passed, one of the three samples inside each desiccator was taken and the moisture content of each was measured by the thermogravimetric analysis described in Test Example 2. Equilibrium moisture content at each relative humidity is represented in FIG. 3 (3 hydrate), and FIG. 4 (1.5 hydrate). […] Both hydrates are stable since they keep a constant equilibrium moisture content regardless of the relative humidity change.

[5] = Chemical stability under heating; conditions: for thermal stability: hydrate
Method: The anhydride and each of the hydrates was introduced into a glass vial and maintained at 70° C.

[6] = Moisture content according to hydration number; assay type: physicochemical
Method: The moisture content of the hydrate varies with the hydration number (n) of the hydrated molecule. Since the molecular weight of 7-(4-amino-methyl-3-methyloxylminopyrrolidin-1-yl)-1-cyclopropyl-6-fluoro- 4-oxo-1,4-dihydro-1,8-naphthyridine-3-carboxylic acid methanesulfonate is 485.5, the moisture content of the hydrate for n equal to 1, 1.5, 2, 2.5, 3, 3.5 or 4 is calculated to be 3.6%, […], 6.9%, 8.5%, 10.0%, 11.5% or 12.9%, respectively. However, the actual moisture content may differ from the calculated moisture content depending on differences in recrystallization conditions, drying conditions, etc.

[7] = background art; cited from earlier work
[8] = tested on: gram-positive strains; conditions: background art; cited from earlier work
[9] = tested on: Escherichia coli TEM9 2639E; test: In vitro antibacterial activity (MIC, agar medium dilution), Biological Example 4; assay type: cell-based; conditions: TEM92639E, 18 h, read-out: Minimum Inhibitory Concentration: MIC
[10] = tested on: Seratis marsecence 1826E; test: as above; assay type: cell-based; conditions: 18 h, Table 32, ratio of weight, read-out: Minimum Inhibitory Concentration: MIC
Method: (§1) In order to determine the antibacterial activitiers of the E- and Z-isomner of the compound 180 which were separated in Example 203, and of 7- (4-aminomethyl-3-methyloxylminopyrrolidin-1-yl)-1-cyclopropyl-6-fluoro-4-oxo-1,4-dihydro-1,8-naphthyridine-3-carboxylic acid methanesulfonate prepared in Example 204, in vitro antibacterial activities of them were measured using agar medium dilution method. The results were as described in the following Tables 31 and 32.

[11] = tested on: Staphylococcus aureus 241; test: as above; assay type: cell-based; conditions: Staphylococcus aureus, 241, 18 h, Staphylococcus aureus 241, Table 32, ratio of weight; read-out: Minimum Inhibitory Concentration: MIC
[12] = tested on: Staphylococcus epidermidis 887E; test: as above; assay type: cell-based; conditions: 18 h, read-out: Minimum Inhibitory Concentration: MIC, Staphylococcus epidermidis 887E, Table 32, ratio of weight
[13] = tested on: Staphylococcus epidermidis 178; test: as above; assay type: cell-based; conditions: 18 h; Staphylococcus epidermidis 178, Table 32, ratio of weight; read-out: Minimum Inhibitory Concentration: MIC
[14] = tested on: Staphylococcus aureus 6538p; test: as above; assay type: cell-based; conditions: 18 h, Table 32, ratio of weight without considering molecular weight, read-out: Minimum Inhibitory Concentration: MIC
[15] = tested on: Escherichia coli 10536; test: as above; assay type: cell-based; conditions: Escherichia coli, 10536, 18 h, read-out: Minimum Inhibitory Concentration: MIC, Escherichia coli 10536, Table 32, ratio of weight
[16] = tested on: Salmonella thypimurium 14028; test: as above; assay type: cell-based; conditions: 18 h; Salmonella thypimurium 14028, Table 32, ratio of weight; read-out: Minimum Inhibitory Concentration: MIC
[17] = tested on: Klebsiella aerogenes 1082E; test: as above; assay type: cell-based; conditions: 18 h, Table 32, ratio of weight, read-out: Minimum Inhibitory Concentration: MIC
[18] = Antibacterial activity of methanesulfonate and its hydrate; assay type: cell-based
[19] = tested on: Enterobacter cloacae P99; test: microbe, parasite or virus in culture; assay type: cell-based; conditions: P99, 18 h, read-out: Minimum Inhibitory Concentration: MIC
[20] = tested on: Acinetobacter calcoaceticus 15473; test: In vitro antibacterial activity (MIC, agar medium dilution), Biological Example 4; assay type: cell-based; conditions: 18 h; Acinetobacter calcoaceticus 15473, Table 32, ratio of weight; read-out: Minimum Inhibitory Concentration: MIC
[21] = tested on: Staphylococcus aureus giorgio; test: as above; assay type: cell-based; conditions: 18 h, Table 32, ratio of weight, read-out: Minimum Inhibitory Concentration: MIC
[22] = tested on: Bacillus subtilis 6633; test: as above; assay type: cell-based; conditions: 18 h; Bacillus subtilis 6633, Table 32, ratio of weight; read-out: Minimum Inhibitory Concentration: MIC
[23] = tested on: test strains; test: In vitro antibacterial activity, overall finding, Biological Example 4; assay type: cell-based; conditions: Tables 31 and 32
Method: as §1

[24] = assay type: physicochemical
[25] = tested on: Staphylococcus aureus 77; test: In vitro antibacterial activity (MIC, agar medium dilution), Biological Example 4; assay type: cell-based; conditions: 18 h; Staphylococcus aureus 77, Table 32, ratio of weight; read-out: Minimum Inhibitory Concentration: MIC
[26] = tested on: Escherichia coli 851E; test: as above; assay type: cell-based; conditions: 18 h, Table 32, ratio of weight, read-out: Minimum Inhibitory Concentration: MIC
[27] = tested on: Pseudomonas aeruginosa 10145; test: In vitro antibacterial activity (MIC, agar medium dilution), Biological Example 4; assay type: cell-based; conditions: Pseudomonas aeruginosa, 10145, 18 h, Pseudomonas aeruginosa 10145, Table 32, ratio of weight; read-out: Minimum Inhibitory Concentration: MIC
[28] = tested on: Escherichia coli TEM5 3739E; test: as above; assay type: cell-based; conditions: TEM53739E, 18 h, read-out: Minimum Inhibitory Concentration: MIC
[29] = tested on: Enterobacter cloacae 1194E; test: microbe, parasite or virus in culture; assay type: cell-based; conditions: 18 h, read-out: Minimum Inhibitory Concentration: MIC
[30] = tested on: Citrobacter diversus 2046E; test: In vitro antibacterial activity (MIC, agar medium dilution), Biological Example 4; assay type: cell-based; conditions: Citrobacter koseri, 18 h, Table 32, ratio of weight, read-out: Minimum Inhibitory Concentration: MIC
[31] = tested on: Proteus vulgaris 6059; test: as above; assay type: cell-based; conditions: 18 h; Proteus vulgaris 6059, Table 32, ratio of weight; read-out: Minimum Inhibitory Concentration: MIC
[32] = tested on: Escherichia coli 3190Y; test: as above; assay type: cell-based; conditions: 18 h, Table 32, ratio of weight, read-out: Minimum Inhibitory Concentration: MIC
[33] = tested on: Micrococcus luteus 9341; test: as above; assay type: cell-based; conditions: 18 h; Micrococcus luteus 9341, Table 32, ratio of weight; read-out: Minimum Inhibitory Concentration: MIC
[34] = tested on: Pseudomonas aeruginosa 1912E; test: as above; assay type: cell-based; conditions: 18 h, Table 32, ratio of weight, read-out: Minimum Inhibitory Concentration: MIC
[35] = tested on: Streptococcus faecalis 29212; test: as above; assay type: cell-based; conditions: Enterococcus faecalis, 29212, 18 h, Streptococcus faecalis 29212, Table 32, ratio of weight; read-out: Minimum Inhibitory Concentration: MIC
[36] = tested on: Escherichia coli TEM3 3455E; test: as above; assay type: cell-based; conditions: TEM33455E, 18 h, read-out: Minimum Inhibitory Concentration: MIC, Escherichia coli TEM3 3455E, Table 32, ratio of weight
[37] = physchem; conditions: phosphate buffered solution
[38] = tested on: Klebsiella aerogenes 1976E; test: In vitro antibacterial activity (MIC, agar medium dilution), Biological Example 4; assay type: cell-based; conditions: 18 h, Table 32, ratio of weight, read-out: Minimum Inhibitory Concentration: MIC

With `CON=C1CN(c2nc3c(cc2F)c(=O)c(C(=O)O)cn3C2CC2)CC1CN` (centres unmarked) [anhydride, 7-(4-aminomethyl-3-methyloxyiminopyrrolidin-1-yl)-1-cyclopropyl-6-fluoro-4-oxo-1,4-dihydro-1,8-naphthyridine-3-carboxylic acid methanesulfonate anhydride] the endothermic peak [1] was “without any endothermic peak”, the Moisture Content ([2]; before humidification) was “about 2.5%” and the Moisture Content ([2]; humidified nitrogen, over 30 minutes, FIG. 8) was “about 10%”. The moisture adsorption ([3]; relative humidity 0 to 95%) was “Initial moisture adsorption proceeded very speedily at each relative humidity tested; also recorded: the equilibrium moisture content is dependent upon the relative humidity” and the “time to reach moisture adsorption equilibrium” value ([3]; relative humidity 0 to 95% at 5% intervals, in most cases) was ≤ 2 h.

In the case of `CON=C1CN(c2nc3c(cc2F)c(=O)c(C(=O)O)cn3C2CC2)CC1CN` (centres unmarked) [3 hydrate, 7-(4-aminomethyl-3-methyloxyiminopyrrolidin-1-yl)-1-cyclopropyl-6-fluoro-4-oxo-1,4-dihydro-1,8-naphthyridine-3-carboxylic acid methanesulfonate·3 hydrate], the “onset of endothermic peak (vaporization of water)” value [1] is reported as “around 50 °C”, the “stability of hydrate towards relative humidity change” value [4] is reported as “stable” and the equilibrium moisture content ([4]; whole relative humidity range tested (23 to 75%)) is reported as “around 10%”. The “thermal stability compared with the anhydride” value ([5]; 70° C., Table 29) was “the same degree of thermal stability as the anhydride”, the thermal stability ([5]; 40320 min) was 94% and the thermal stability [5] was 97%. For the same compound, the “Moisture Content” value ([6]; actual moisture content, methanesulfonate hydrates, hydrate) was 9-11% and the “change of moisture content” value ([6]; among stable hydrates) was “lowest”.

For `CCn1cc(C(=O)O)c(=O)c2cc(F)c(N3CCNCC3)cc21` [norfloxacin], the “distribution and absorption in living body” value [7] is listed as “poor distribution and absorption in living body” and the “antibacterial activity against gram-positive strains” value [8] is listed as “weak antibacterial activity against gram-positive strains”.

Compound `CON=C1CN(c2nc3c(cc2F)c(=O)c(C(=O)O)cn3C2CC2)CC1CN.CS(=O)(=O)O` (centres unmarked) [Methanesulfonate, 7-(4-aminomethyl-3-methyloxyiminopyrrolidin-1-yl)-1-cyclopropyl-6-fluoro-4-oxo-1,4-dihydro-1,8-naphthyridine-3-carboxylic acid methanesulfonate] has an MIC [9] of 0.031 µg/mL, an MIC [10] of 0.13 µg/mL and an MIC [11] of 4 µg/mL. It also gave an MIC [12] of 0.016 µg/mL, an MIC [13] of 4 µg/mL and an MIC [14] of 0.016 µg/mL. The MIC [15] was 0.008 µg/mL, the MIC [16] was 0.031 µg/mL and the MIC [17] was 0.031 µg/mL. The “antibacterial activity compared with the free form” value [18] was “the same potent antibacterial activity as the free form”, the MIC [19] was 0.016 µg/mL and the MIC [20] was 0.031 µg/mL. For the same compound, the MIC [21] was 0.016 µg/mL, the MIC [22] was 0.016 µg/mL and the antibacterial activity [23] was “excellent antibacterial activity”. For the same compound, the solubility [24] was “excellent solubility”, the MIC [25] was 0.031 µg/mL and the MIC [26] was 0.016 µg/mL. The “water solubility compared with other salts and free form” value was “superior to that of the tartarate, the sulfurate, and the p-toluenesulfonate as well as the free form”, the MIC [27] was 0.5 µg/mL and the MIC [28] was 0.13 µg/mL. It also gave an MIC [29] of 0.031 µg/mL, an MIC [30] of 0.031 µg/mL and an MIC [31] of 0.25 µg/mL. The MIC [32] was 0.008 µg/mL, the MIC [33] was 0.13 µg/mL and the MIC [34] was 0.25 µg/mL. For the same compound, the MIC [35] was 0.13 µg/mL, the MIC [36] was 0.25 µg/mL and the solubility ([37]; pH 2, Water Solubility, phosphate buffered solution (pH 2)) was > 20 mg/mL. The solubility ([37]; pH 7, Water Solubility, phosphate buffered solution (pH 7)) was > 30 mg/mL and the MIC [38] was 0.13 µg/mL.
